According to ChEMBL document CHEMBL1201861, “Genomics of Drug Sensitity in Cancer screening data, Wellcome Trust Sanger Institute”:

What was measured:
Format in all cases: functional, cell-based
D-336MG = assay: cells; conditions: Homo sapiens
Description: SANGER: Inhibition of human D-336MG cell growth in a cell viability assay.

D-392MG = assay: cells; conditions: Homo sapiens
D-542MG = assay: cells; conditions: Homo sapiens
Description: SANGER: Inhibition of human D-542MG cell growth in a cell viability assay.

IM-9 = assay: SANGER: Inhibition of human IM-9 cell growth in a cell viability assay.
IMR-5 = assay: cells; conditions: Homo sapiens;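 also: growth inhibition of human IMR-5 cells, read out with a cell viability assay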
Description: SANGER: Inhibition of human IMR-5 cell growth in a cell viability assay.

KARPAS-422 = assay: cells; conditions: Homo sapiens
Description: SANGER: Inhibition of human KARPAS-422 cell growth in a cell viability assay.

KP-N-YN = assay: cells; conditions: Homo sapiens;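 also: growth inhibition of KP-N-YN cells, read out with a cell viability assay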
Description: SANGER: Inhibition of human KP-N-YN cell growth in a cell viability assay.

LP-1 = assay: cells; conditions: Homo sapiens;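 also: growth inhibition of human LP-1 cells, with the read-out taken from a cell viability assay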
Description: SANGER: Inhibition of human LP-1 cell growth in a cell viability assay.

LU-165 = assay: cells; conditions: Homo sapiens
Description: SANGER: Inhibition of human LU-165 cell growth in a cell viability assay.

MONO-MAC-6 = assay: cells; conditions: Homo sapiens;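 also: cell viability assay measuring growth inhibition of human MONO-MAC-6 cells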
Description: SANGER: Inhibition of human MONO-MAC-6 cell growth in a cell viability assay.

NB17 = assay: cells; conditions: Homo sapiens;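 also: growth inhibition of NB17 cells, read out with a cell viability assay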
Description: SANGER: Inhibition of human NB17 cell growth in a cell viability assay.

NCI-H1963 = assay: cells; conditions: Homo sapiens;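 also: cell growth inhibition of the human line, determined with a cell viability assay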
Description: SANGER: Inhibition of human NCI-H1963 cell growth in a cell viability assay.

NCI-H719 = assay: cells; conditions: Homo sapiens;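 also: growth inhibition of the cultured cell line, read out with a viability assay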
Description: SANGER: Inhibition of human NCI-H719 cell growth in a cell viability assay.

SU-DHL-1 = assay: SANGER: Inhibition of human SU-DHL-1 cell growth in a cell viability assay.
SUP-T1 = assay: cells; conditions: Homo sapiens;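 also: growth inhibition of human SUP-T1 cells, read out as cell viability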
Description: SANGER: Inhibition of human SUP-T1 cell growth in a cell viability assay.

Ca9-22 = assay: cells; conditions: Homo sapiens;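 also: growth inhibition of Ca9-22 cells, read out with a cell viability assay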
Description: SANGER: Inhibition of human Ca9-22 cell growth in a cell viability assay.

Calu-3 = assay: cells; conditions: Homo sapiens;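 also: growth inhibition of human Calu-3 cells, determined with a cell viability assay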
Description: SANGER: Inhibition of human Calu-3 cell growth in a cell viability assay.

EFO-27 = assay: cells; conditions: Homo sapiens;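 also: growth inhibition of EFO-27 cells, read out with a cell viability assay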
Description: SANGER: Inhibition of human EFO-27 cell growth in a cell viability assay.

HCC1395 = assay: cells; conditions: Homo sapiens;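 also: growth inhibition of HCC1395 cells, read out by a cell viability assay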
Description: SANGER: Inhibition of human HCC1395 cell growth in a cell viability assay.

HO-1-N-1 = assay: cells; conditions: Homo sapiens;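 also: growth inhibition of human HO-1-N-1 cells, read out with a cell viability assay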
Description: SANGER: Inhibition of human HO-1-N-1 cell growth in a cell viability assay.

HPAF-II = assay: cells; conditions: Homo sapiens;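 also: growth inhibition of HPAF-II cells, read out with a cell viability assay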
Description: SANGER: Inhibition of human HPAF-II cell growth in a cell viability assay.

HT55 = assay: cells; conditions: Homo sapiens;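 also: cell viability readout measuring growth inhibition of human HT55 cells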
Description: SANGER: Inhibition of human HT55 cell growth in a cell viability assay.

KYSE-180 = assay: cells; conditions: Homo sapiens;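 also: growth inhibition of KYSE-180 cells, read out with a cell viability assay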
Description: SANGER: Inhibition of human KYSE-180 cell growth in a cell viability assay.

KYSE-70 cell line = assay: cells; conditions: Homo sapiens;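 also: cell viability assay read-out, with IC50 expressing suppression of KYSE-70 cell growth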
Description: SANGER: Inhibition of human KYSE-70 cell growth in a cell viability assay.

LCLC-103H cell line = assay: cells; conditions: Homo sapiens
Description: SANGER: Inhibition of human LCLC-103H cell growth in a cell viability assay.

LoVo = assay: cells; conditions: Homo sapiens;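 also: growth inhibition of human LoVo cells, read out with a cell viability assay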
Description: SANGER: Inhibition of human LoVo cell growth in a cell viability assay.

MDA-MB-361 = assay: cells; conditions: Homo sapiens
MDA-MB-415 = assay: cells; conditions: Homo sapiens
ME-180 = assay: cells; conditions: Homo sapiens;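 also: cell viability assay measuring growth inhibition of ME-180 cells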
Description: SANGER: Inhibition of human ME-180 cell growth in a cell viability assay.

MFE-280 = assay: cells; conditions: Homo sapiens;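 also: growth inhibition of MFE-280 cells, determined with a cell viability readout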
Description: SANGER: Inhibition of human MFE-280 cell growth in a cell viability assay.

MKN-28 = assay: cells; conditions: Homo sapiens;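 also: cell viability assay read-out, IC50 reflects suppression of growth of human MKN-28 cells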
Description: SANGER: Inhibition of human MKN28 cell growth in a cell viability assay.

NCI-H1437 = assay: cells; conditions: Homo sapiens;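 also: growth inhibition of human NCI-H1437 cells, read out by a cell viability assay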
Description: SANGER: Inhibition of human NCI-H1437 cell growth in a cell viability assay.

NCI-H1703 = assay: cells; conditions: Homo sapiens;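 also: growth inhibition of NCI-H1703 cells, read out via a cell viability assay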
Description: SANGER: Inhibition of human NCI-H1703 cell growth in a cell viability assay.

NCI-H1755 = assay: cells; conditions: Homo sapiens;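 also: cell viability readout used to measure growth inhibition of NCI-H1755 cells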
Description: SANGER: Inhibition of human NCI-H1755 cell growth in a cell viability assay.

NCI-H2087 = assay: cells; conditions: Homo sapiens;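 also: growth inhibition determined with a cell viability readout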
Description: SANGER: Inhibition of human NCI-H2087 cell growth in a cell viability assay.

NCI-H2122 = assay: cells; conditions: Homo sapiens;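 also: growth inhibition of the cells, read out with a cell viability assay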
Description: SANGER: Inhibition of human NCI-H2122 cell growth in a cell viability assay.

NCI-H2452 = assay: cells; conditions: Homo sapiens;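 also: growth inhibition of NCI-H2452 cells, read out with a cell viability assay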
Description: SANGER: Inhibition of human NCI-H2452 cell growth in a cell viability assay.

NCI-H292 = assay: cells; conditions: Homo sapiens;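 also: growth inhibition of NCI-H292 cells, read out with a cell viability assay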
Description: SANGER: Inhibition of human NCI-H292 cell growth in a cell viability assay.

NCI-H358 = assay: cells; conditions: Homo sapiens;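 also: growth inhibition of NCI-H358 human cells, read out with a cell viability assay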
Description: SANGER: Inhibition of human NCI-H358 cell growth in a cell viability assay.

NCI-H810 = assay: cells; conditions: Homo sapiens;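 also: IC50 reflects inhibition of cancer cell line growth, read out with a cell viability assay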
Description: SANGER: Inhibition of human NCI-H810 cell growth in a cell viability assay.

OE33 = assay: cells; conditions: Homo sapiens;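 also: growth inhibition of human OE33 cells, measured by a cell viability assay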
Description: SANGER: Inhibition of human OE33 cell growth in a cell viability assay.

PC-14 = assay: cells; conditions: Homo sapiens;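 also: cell viability assay measuring inhibition of PC-14 cell growth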
Description: SANGER: Inhibition of human PC-14 cell growth in a cell viability assay.

RD = assay: cells; conditions: Homo sapiens
Description: SANGER: Inhibition of human RD cell growth in a cell viability assay.

RPMI-7951 = assay: cells; conditions: Homo sapiens
Description: SANGER: Inhibition of human RPMI-7951 cell growth in a cell viability assay.

RT-112 = assay: cells; conditions: Homo sapiens
Description: SANGER: Inhibition of human RT-112 cell growth in a cell viability assay.

SCC-4 = assay: cells; conditions: Homo sapiens;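 also: growth inhibition of human SCC-4 cells, read out as cell viability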
Description: SANGER: Inhibition of human SCC-4 cell growth in a cell viability assay.

SF-295 = assay: cells; conditions: Homo sapiens;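 also: growth inhibition of SF-295 cells, read out with a cell viability assay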
Description: SANGER: Inhibition of human SF295 cell growth in a cell viability assay.

SK-LU-1 = assay: cells; conditions: Homo sapiens;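 also: cell viability assay measuring growth inhibition of human SK-LU-1 cells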
Description: SANGER: Inhibition of human SK-LU-1 cell growth in a cell viability assay.

SW1463 = assay: cells; conditions: Homo sapiens;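 also: growth inhibition of SW1463 cells, determined with a cell viability assay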
Description: SANGER: Inhibition of human SW1463 cell growth in a cell viability assay.

SW-620 = assay: cells; conditions: Homo sapiens;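 also: growth inhibition of human SW-620 cells, measured by a cell viability assay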
Description: SANGER: Inhibition of human SW620 cell growth in a cell viability assay.

SW837 = assay: cells; conditions: Homo sapiens;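 also: growth inhibition of SW837 cells, determined with a cell viability assay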
Description: SANGER: Inhibition of human SW837 cell growth in a cell viability assay.

SW948 = assay: cells; conditions: Homo sapiens;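 also: growth inhibition of SW948 cells, read out with a cell viability assay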
Description: SANGER: Inhibition of human SW948 cell growth in a cell viability assay.

5637 = assay: cells; conditions: Homo sapiens
Description: SANGER: Inhibition of human 5637 cell growth in a cell viability assay.

639-V = assay: cells; conditions: Homo sapiens;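 also: growth inhibition of 639-V cells, read out with a cell viability assay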
Description: SANGER: Inhibition of human 639-V cell growth in a cell viability assay.

8505C = assay: cells; conditions: Homo sapiens
Description: SANGER: Inhibition of human 8505C cell growth in a cell viability assay.

A 172 = assay: cells; conditions: Homo sapiens;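 also: growth inhibition of A172 cells, measured with a cell viability readout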
Description: SANGER: Inhibition of human A172 cell growth in a cell viability assay.

ABC-1 = assay: cells; conditions: Homo sapiens;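 also: growth inhibition of human ABC-1 cells, read out by a cell viability assay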
Description: SANGER: Inhibition of human ABC-1 cell growth in a cell viability assay.

AGS = assay: cells; conditions: Homo sapiens;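 also: growth inhibition of AGS cells, determined with a cell viability assay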
Description: SANGER: Inhibition of human AGS cell growth in a cell viability assay.

BEN = assay: cells; conditions: Homo sapiens;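 also: growth inhibition of the BEN cell line, read out with a cell viability assay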
Description: SANGER: Inhibition of human BEN cell growth in a cell viability assay.

BFTC-909 = assay: cells; conditions: Homo sapiens
Description: SANGER: Inhibition of human BFTC-909 cell growth in a cell viability assay.

BT-20 = assay: cells; conditions: Homo sapiens;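 also: cell viability assay measuring suppression of growth in human BT-20 cells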
Description: SANGER: Inhibition of human BT-20 cell growth in a cell viability assay.

TYK-nu = assay: cells; conditions: Homo sapiens;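 also: growth inhibition of human TYK-nu cells, read out by a cell viability assay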
Description: SANGER: Inhibition of human TYK-nu cell growth in a cell viability assay.

UACC-62 = assay: cells; conditions: Homo sapiens;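 also: growth inhibition of human UACC-62 cells, read out by a cell viability assay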
Description: SANGER: Inhibition of human UACC-62 cell growth in a cell viability assay.

BOKU = assay: cells; conditions: Homo sapiens;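 also: growth inhibition of the human BOKU cell line, read out by a cell viability assay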
Description: SANGER: Inhibition of human BOKU cell growth in a cell viability assay.

CCn1c(-c2nonc2N)nc2cnc(Oc3cccc(NC(=O)c4ccc(OCCN5CCOCC5)cc4)c3)cc21 [GSK-269962A]
IC50 (D-336MG): 629 nM | IC50 (D-392MG): 1430 nM | IC50 (D-542MG): > 2500 nM | IC50 (IM-9): > 2500 nM | IC50 (IMR-5): > 2500 nM | IC50 (KARPAS-422): > 2500 nM | IC50 (KP-N-YN): > 2500 nM | IC50 (LP-1): > 2500 nM | IC50 (LU-165): > 2500 nM | IC50 (MONO-MAC-6): > 2500 nM | IC50 (NB17): > 2500 nM | IC50 (NCI-H1963): 1280 nM | IC50 (NCI-H719): > 2500 nM | IC50 (SU-DHL-1): > 2500 nM | IC50 (SUP-T1): > 2500 nM

C[C@]12O[C@H](C[C@]1(O)CO)n1c3ccccc3c3c4c(c5c6ccccc6n2c5c31)CNC4=O [LESTAURTINIB]
IC50 (Ca9-22): 900 nM | IC50 (Calu-3): > 2000 nM | IC50 (D-336MG): 193 nM | IC50 (D-392MG): 593 nM | IC50 (D-542MG): > 2000 nM | IC50 (EFO-27): 1030 nM | IC50 (HCC1395): > 2000 nM | IC50 (HO-1-N-1): 298 nM | IC50 (HPAF-II): > 2000 nM | IC50 (HT55): > 2000 nM | IC50 (KP-N-YN): 1960 nM | IC50 (KYSE-180): > 2000 nM | IC50 (KYSE-70 cell line): > 2000 nM | IC50 (LCLC-103H cell line): > 2000 nM | IC50 (LoVo): 31.9 nM | IC50 (MDA-MB-361): 1250 nM | IC50 (MDA-MB-415): > 2000 nM | IC50 (ME-180): 737 nM | IC50 (MFE-280): > 2000 nM | IC50 (MKN-28): > 2000 nM | IC50 (NB17): 382 nM | IC50 (NCI-H1437): > 2000 nM | IC50 (NCI-H1703): 345 nM | IC50 (NCI-H1755): 185 nM | IC50 (NCI-H2087): > 2000 nM | IC50 (NCI-H2122): 1920 nM | IC50 (NCI-H2452): 1540 nM | IC50 (NCI-H292): 91.4 nM | IC50 (NCI-H358): > 2000 nM | IC50 (NCI-H810): 995 nM | IC50 (OE33): > 2000 nM | IC50 (PC-14): 449 nM | IC50 (RD): > 2000 nM | IC50 (RPMI-7951): 318 nM | IC50 (RT-112): 464 nM | IC50 (SCC-4): 1360 nM | IC50 (SF-295): 428 nM | IC50 (SK-LU-1): 256 nM | IC50 (SW1463): > 2000 nM | IC50 (SW-620): 557 nM | IC50 (SW837): > 2000 nM | IC50 (SW948): > 2000 nM | IC50 5637: 82.1 nM | IC50 (639-V): 689 nM | IC50 (8505C): 302 nM | IC50 (A 172): 1940 nM | IC50 (ABC-1): > 2000 nM | IC50 (AGS): 69.1 nM | IC50 (BEN): > 2000 nM | IC50 (BFTC-909): 249 nM | IC50 (BT-20): 1650 nM | IC50 (TYK-nu): 185 nM | IC50 (UACC-62): 1120 nM

Cc1[nH]c(/C=C2\C(=O)Nc3ccc(S(=O)(=O)Cc4c(Cl)cccc4Cl)cc32)c(C)c1C(=O)N1CCC[C@@H]1CN1CCCC1 [PHA-665752]
IC50 (D-336MG): > 2000 nM | IC50 (IM-9): > 2000 nM | IC50 (IMR-5): > 2000 nM | IC50 (KARPAS-422): > 2000 nM | IC50 (LP-1): > 2000 nM | IC50 (LU-165): > 2000 nM | IC50 (MONO-MAC-6): > 2000 nM | IC50 (NB17): > 2000 nM | IC50 (NCI-H1963): > 2000 nM | IC50 (NCI-H719): > 2000 nM | IC50 (SU-DHL-1): > 2000 nM | IC50 (SUP-T1): > 2000 nM | IC50 (BOKU): > 2000 nM

C[C@]1(c2nc3c(C(N)=O)cccc3[nH]2)CCCN1 [VELIPARIB]
IC50 (Ca9-22): > 5000 nM | IC50 (Calu-3): > 5000 nM | IC50 (D-336MG): > 5000 nM | IC50 (D-392MG): > 5000 nM | IC50 (D-542MG): > 5000 nM | IC50 (EFO-27): > 5000 nM | IC50 (HCC1395): > 5000 nM | IC50 (HO-1-N-1): > 5000 nM | IC50 (HPAF-II): > 5000 nM | IC50 (HT55): > 5000 nM | IC50 (KP-N-YN): > 5000 nM | IC50 (KYSE-180): > 5000 nM | IC50 (KYSE-70 cell line): > 5000 nM | IC50 (LCLC-103H cell line): > 5000 nM | IC50 (LoVo): > 5000 nM | IC50 (MDA-MB-361): > 5000 nM | IC50 (MDA-MB-415): > 5000 nM | IC50 (ME-180): > 5000 nM | IC50 (MFE-280): > 5000 nM | IC50 (MKN-28): > 5000 nM | IC50 (NB17): > 5000 nM | IC50 (NCI-H1437): > 5000 nM | IC50 (NCI-H1703): > 5000 nM | IC50 (NCI-H1755): > 5000 nM | IC50 (NCI-H2087): > 5000 nM | IC50 (NCI-H2122): > 5000 nM | IC50 (NCI-H2452): > 5000 nM | IC50 (NCI-H292): > 5000 nM | IC50 (NCI-H358): > 5000 nM | IC50 (NCI-H810): > 5000 nM | IC50 (OE33): > 5000 nM | IC50 (PC-14): > 5000 nM | IC50 (RD): > 5000 nM | IC50 (RPMI-7951): > 5000 nM | IC50 (RT-112): > 5000 nM | IC50 (SCC-4): > 5000 nM | IC50 (SF-295): > 5000 nM | IC50 (SK-LU-1): > 5000 nM | IC50 (SW1463): > 5000 nM | IC50 (SW-620): > 5000 nM | IC50 (SW837): > 5000 nM | IC50 (SW948): > 5000 nM | IC50 5637: > 5000 nM | IC50 (639-V): > 5000 nM | IC50 (8505C): > 5000 nM | IC50 (A 172): > 5000 nM | IC50 (ABC-1): > 5000 nM | IC50 (AGS): > 5000 nM | IC50 (BEN): > 5000 nM | IC50 (BFTC-909): > 5000 nM | IC50 (BT-20): > 5000 nM | IC50 (TYK-nu): > 5000 nM | IC50 (UACC-62): > 5000 nM

CC[C@]1(O)C[C@@H]2CN(CCc3c([nH]c4ccccc34)[C@@](C(=O)OC)(c3cc4c(cc3OC)N(C)[C@H]3[C@@](O)(C(=O)OC)[C@H](OC(C)=O)[C@]5(CC)C=CCN6CC[C@]43[C@@H]65)C2)C1 [VINBLASTINE]
IC50 (Ca9-22): 6.39 nM | IC50 (Calu-3): > 100 nM | IC50 (D-336MG): 7.25 nM | IC50 (D-392MG): 18.9 nM | IC50 (D-542MG): > 100 nM | IC50 (EFO-27): 7.45 nM | IC50 (HCC1395): 29.2 nM | IC50 (HO-1-N-1): 1.76 nM | IC50 (HPAF-II): 40 nM | IC50 (HT55): > 100 nM | IC50 (KP-N-YN): 46.4 nM | IC50 (KYSE-180): 6.39 nM | IC50 (KYSE-70 cell line): 48.4 nM | IC50 (LCLC-103H cell line): 1.5 nM | IC50 (LoVo): 6.03 nM | IC50 (MDA-MB-361): 1.66 nM | IC50 (MDA-MB-415): 18.5 nM | IC50 (ME-180): 4.47 nM | IC50 (MFE-280): 36.1 nM | IC50 (MKN-28): 2.7 nM | IC50 (NB17): 21.8 nM | IC50 (NCI-H1437): 7.76 nM | IC50 (NCI-H1703): 1.43 nM | IC50 (NCI-H1755): 19.4 nM | IC50 (NCI-H2087): 30.5 nM | IC50 (NCI-H2122): 3.44 nM | IC50 (NCI-H2452): 9.59 nM | IC50 (NCI-H292): 3.03 nM | IC50 (NCI-H358): 37 nM | IC50 (NCI-H810): 68.7 nM | IC50 (OE33): 28.6 nM | IC50 (PC-14): 3.53 nM | IC50 (RD): 4.17 nM | IC50 (RPMI-7951): 1.66 nM | IC50 (RT-112): 2.71 nM | IC50 (SCC-4): 2.39 nM | IC50 (SF-295): 36.3 nM | IC50 (SK-LU-1): 18.7 nM | IC50 (SW1463): 69.7 nM | IC50 (SW-620): 8.84 nM | IC50 (SW837): > 100 nM | IC50 (SW948): 76 nM | IC50 5637: 0.951 nM | IC50 (639-V): 5.61 nM | IC50 (8505C): 3.11 nM | IC50 (A 172): 9.62 nM | IC50 (ABC-1): 15.5 nM | IC50 (AGS): 12.3 nM | IC50 (BEN): 81.2 nM | IC50 (BFTC-909): 7.53 nM | IC50 (BT-20): 37.7 nM | IC50 (TYK-nu): 11.9 nM | IC50 (UACC-62): 8.06 nM
